Measurements from patent US20120232062A1, “AZAINDAZOLES TO TREAT FLAVIVIRIDAE VIRUS INFECTION” (EIGER BIOPHARMACEUTICALS, INC., priority 2009, published 2012).

Target: T1, hERG channel (Homo sapiens, UniProt Q12809)
T1 construct: host or cells: CHO (Chinese Hamster Ovary), stably transfected
Test: hERG channel assay
Format: cell-based
Conditions: CHO cell line expressing hERG, whole cell recordings
Experimental: The most common mechanism for these adverse events is the inhibition of one or more cardiac potassium channels, in particular hERG. This current is important for cardiac myocyte repolarization and is a common target for drugs that prolong the QT interval. Test articles in this study were therefore characterized to determine their ability to inhibit the hERG channel. Ion channel activity was measured using a stably transfected Chinese Hamster Ovary (CHO) cell line expressing the hERG mRNA. The pharmacology of this cloned channel expressed in the CHO cell line is very similar to that observed in native tissue.
Cells: AVIVA's CHO cell line, which stably expresses hERG channels, was used for the study. Cells were cultured in DMEM/F12 containing 10% FBS, 1% penicillin/streptomycin and 500 μg/ml G418. Before testing, cells were harvested using Accumax (Innovative Cell Technologies).
Solutions: For electrophysiological recordings, the following solutions were used. External Solution: 2 mM CaCl2; 2 mM MgCl2; 4 mM KCl; 150 mM NaCl; 10 mM Glucose; 10 mM HEPES; 310-320 mOsm; pH 7.4 (adjusted with 1M NaOH). Internal Solution: 140 mM KCl; 10 mM MgCl2; 6 mM EGTA; 5 mM HEPESNa; […]; 300-320 mOsm; pH 7.25 (adjusted with 1M KOH).
Electrophysiology: Whole cell recordings were performed using PX 7000A (Axon Instruments) with VIVA's SealChip™ technology. Cells were voltage clamped at a holding potential of −80 mV. The hERG current was then activated by a depolarizing step to −50 mV for 300 ms. This first step at −50 mV was used as a baseline for measuring peak amplitude of the tail current. Next, a voltage step to +20 mV was applied for 5 s to activate the channels. Finally a step back to −50 mV for 5 seconds removed activation and the deactivating tail current was recorded.
Compound Handling and Dilutions: All compounds were prepared from either 10 or 30 mM DMSO stock solutions. Solutions were mixed by sonication for 20 min, followed by vigorous vortexing. Prior to testing, compounds were diluted to test concentrations in glass vials using External Solution. Dilutions were prepared no longer than 20 min prior to use. Equal amounts of DMSO (0.1%) were present in all final dilutions.
Electrophysiology Procedures: After achieving whole cell configuration, cells were monitored for 90 s to assess stability and then washed with External Solution for 66 s. The voltage protocol described above was then applied to the cells every 12 s throughout the procedure. Only stable cells with recording parameters above threshold (see Quality Control section) were allowed to enter the drug addition procedure. External solution containing 0.1% DMSO (vehicle) was applied to the cells to establish a baseline. After allowing the current to stabilize for 3 to 5 min, test articles were applied. Test article solutions were added to cells in 4 separate additions. Cells were kept in test solution until effect of the test article reached steady state, to a maximum of 12 min. Next, 1 μM cisapride (positive control) was added. Finally, washout with External Solution was performed until the recovery current reached a steady state.
Data Analysis: Data analysis was performed using DataXpress (Axon Instruments), Clampfit (Axon Instruments) and Origin (Originlab Corporation) software.

T1 sequence (Q12809 whole entry): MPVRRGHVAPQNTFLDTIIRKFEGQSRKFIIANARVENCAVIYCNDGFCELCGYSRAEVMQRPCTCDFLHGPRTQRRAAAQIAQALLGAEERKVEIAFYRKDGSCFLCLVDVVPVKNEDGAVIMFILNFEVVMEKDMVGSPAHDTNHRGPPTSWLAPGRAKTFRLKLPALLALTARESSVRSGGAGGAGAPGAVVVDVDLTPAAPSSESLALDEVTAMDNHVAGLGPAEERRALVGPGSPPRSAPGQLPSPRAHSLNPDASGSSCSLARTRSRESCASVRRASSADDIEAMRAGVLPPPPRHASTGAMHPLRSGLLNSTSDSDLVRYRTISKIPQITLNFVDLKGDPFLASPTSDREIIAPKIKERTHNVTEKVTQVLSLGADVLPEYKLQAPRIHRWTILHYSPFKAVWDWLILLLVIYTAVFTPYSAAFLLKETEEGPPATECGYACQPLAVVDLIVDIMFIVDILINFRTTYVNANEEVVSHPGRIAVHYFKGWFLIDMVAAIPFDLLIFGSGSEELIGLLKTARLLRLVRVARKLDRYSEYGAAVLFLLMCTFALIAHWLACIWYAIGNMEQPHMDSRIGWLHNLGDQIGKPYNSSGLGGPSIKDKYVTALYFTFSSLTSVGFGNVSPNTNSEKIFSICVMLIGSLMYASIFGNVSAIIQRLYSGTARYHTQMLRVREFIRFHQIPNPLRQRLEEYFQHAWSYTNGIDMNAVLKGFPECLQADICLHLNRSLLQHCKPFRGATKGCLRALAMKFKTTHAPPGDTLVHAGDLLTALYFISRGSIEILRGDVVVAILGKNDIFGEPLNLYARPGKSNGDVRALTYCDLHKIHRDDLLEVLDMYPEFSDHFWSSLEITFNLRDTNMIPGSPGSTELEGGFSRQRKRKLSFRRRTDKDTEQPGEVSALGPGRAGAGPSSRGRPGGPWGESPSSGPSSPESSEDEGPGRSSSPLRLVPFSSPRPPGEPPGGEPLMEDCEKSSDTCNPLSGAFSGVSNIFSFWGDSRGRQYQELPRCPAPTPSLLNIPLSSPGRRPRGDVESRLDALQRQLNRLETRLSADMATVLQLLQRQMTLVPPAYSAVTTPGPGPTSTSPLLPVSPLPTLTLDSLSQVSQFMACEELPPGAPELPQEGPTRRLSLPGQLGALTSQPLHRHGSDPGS

SMILES: Cn1nc(C(=O)NC2CCNCC2)c2ccc(N3CCCCCC3)nc21.O=C(O)C(F)(F)F.O=C(O)C(F)(F)F [compound 697]
- IC50: > 10 µM

SMILES: CCC(CC)Oc1ccc2c(C(=O)NC3CCNCC3)n[nH]c2n1 [compound 726]
- IC50: > 10 µM

SMILES: Clc1ccc(Cn2nc(COCCCN3CCCCC3)c3ccc(N4CCCCCC4)nc32)cc1 [compound 749]
- IC50: 3.3 µM

SMILES: CCC(CC)Oc1ccc2c(COCC3CCCNC3)nn(Cc3ccc(Cl)cc3)c2n1.O=C(O)C(F)(F)F (stereo not drawn) [compound 755]
- IC50: > 10 µM

SMILES: O=C(NC1CCNCC1)c1nn(C(=O)C2CCCCC2)c2nc(N3CCCCCC3)ccc12.O=C(O)C(F)(F)F.O=C(O)C(F)(F)F.O=C(O)C(F)(F)F [compound 989]
- IC50: > 10 µM

SMILES: Cn1nc(C(=O)NC2CCN(CCN3CCCCC3)CC2)c2ccc(N3CCCCCC3)nc21 [compound 1047]
- IC50: 9.5 µM

SMILES: Cn1nc(C(=O)NC2CCN(CC3CCCCC3)CC2)c2ccc(N3CCCCCCC3)nc21 [compound 1062]
- IC50: > 10 µM

SMILES: CCN1CCC(NC(=O)c2nn(C)c3nc(N4CCCCCC4)ccc23)CC1 [compound 1595]
- IC50: 1.1 µM

SMILES: Cn1nc(C(=O)NC2CCN(CCN3CCCC3)CC2)c2ccc(N3CCCCCC3)nc21 [compound 1597]
- IC50: 9.1 µM
